Values of other authors in patent publication US20050074443A1, “Methods of attenuating autoimmune disease and compositions useful therefor” (priority 2003, published 2005).

System: experimental autoimmune encephalomyelitis
Conditions: exogenous administration, mouse model

With `C=C1/C(=C\C=C2/CCC[C@]3(C)[C@@H]([C@H](C)CCCC(C)(C)O)CC[C@@H]23)C[C@@H](O)C[C@@H]1O` [1,25-dihydroxyvitamin D3] as the compound, how does the “effect on experimental autoimmune encephalomyelitis” value read?
The value was “can prevent experimental autoimmune encephalomyelitis”.
